Experimental data from US4316898A, “Cephalosporins” (Boehringer Ingelheim KG, priority 1979, dated 1982).
In brackets after ≈: the same amount, converted by molar mass.

Experiments:
[1] = test system: Pseudomonas aeruginosa Walter; experiment: Serial dilution test in the microtiter system, MIC against Pseudomonas aeruginosa Walter; type: cell-based; conditions: minimum inhibitory concentration, 37° C., 18 to 20 hours, read-out: MIC, Pseud. aerug. Walter
Protocol: (§1) The tests were performed using the serial dilution test in the microtiter system. The effect of the test compounds on bacteriostasis was examined at the following concentrations: 80, 40, 20, 10, 5, 2.5, 1.25, 0.6, 0.3, 0.08 and 0.02 μgm/ml. The nutrient medium consisted of 10 gm of peptone, 8 gm of meat extract oxoid, 3 gm of sodium chloride, and 2 gm of sec. sodium phosphate diluted with distilled water to […] (pH 7.2-7.4). Only in the test against streptococci 1% of glucose was added. The age of the primary cultures was approximately 20 hours. The standardization of the bacteria suspension was effected using a photometer according to the method of Eppendorf (test tube .phi. 14 mm, filter 546 nm), using for comparison a barium sulfate suspension formed by the addition of 3.0 ml of 1% barium chloride solution to 97 ml of 1% sulfuric acid. After the standardization,Streptococcus aronson was further diluted to a concentration of 1:15, and the other bacteria to a concentration of 1:1500, using a sodium chloride solution.
(§2) 16 mgm of the particular test compound were put into a 10 ml measuring flask, and the flask was subsequently filled to the mark with solvent. The further dilution series was standardized with distilled water or the appropriate solvent.
(§3) The cavities of the microtiter plates were filled with 0.2 ml of nutrient medium. 0.01 ml of the appropriate test compound solution was then added, followed by inoculation with 0.01 ml of the standardized bacteria suspension. The bacteria were incubated at 37° C. for 18 to 20 hours. Control tests using only the solvent were carried out simultaneously.
(§4) The measurement was carried out macroscopically to determine the minimum inhibitory concentration (the lowest still bacteriostatically effective concentration).
(§5) The following test organisms were used:
(§6) Staphylococcus aureus SG 511, St. aureus E 88 (β-lactamase carrier), Escherichia coli ATCC 11 775, Pseudomonas aeruginosa Hamburgensis and Pseudomonas aeruginosa Walter, Serratia macrescens ATCC 13 880, Klebsiella pneumoniae ATCC 10 031 and 272, Proteus mirabilis Hamburgensis, Proteus rettgeri Eb. cloaceae ATCC 13047, and E. coli R+TEM (β-lactamase carrier).
(§7) The following tables show the determined minimum inhibitory concentrations (MIC) for a few representative compounds (E=Na) of the present invention, and two known cephalosporins for comparison: […]

Proteus rettgeri = experiment: Serial dilution test in the microtiter system, MIC against Proteus rettgeri; type: cell-based; conditions: Providencia rettgeri; minimum inhibitory concentration; 37° C., 18 to 20 hours; read-out: MIC, Prot. rettg.
Protocol: as §1, §2, §3, §4, §5, §6, §7

[2] = test system: Serratia macrescens ATCC 13 880; experiment: Serial dilution test in the microtiter system, MIC against Serratia marcescens ATCC 13880; type: cell-based; conditions: read-out: MIC, Serr. marcesc. ATCC 13880
Protocol: as §1, §2, §3, §4, §5, §6, §7

[3] = test system: Escherichia coli ATCC 11 775; experiment: Serial dilution test in the microtiter system, MIC against E. coli ATCC 11775; type: cell-based; conditions: minimum inhibitory concentration, 37° C., 18 to 20 hours
Protocol: as §1, §2, §3, §4, §5, §6, §7

[4] = test system: Klebsiella pneumoniae 272; experiment: Serial dilution test in the microtiter system, MIC against Klebsiella pneumoniae 272; type: cell-based; conditions: minimum inhibitory concentration, 37° C., 18 to 20 hours, read-out: MIC, Klebs. pneum. 272
Protocol: as §1, §2, §3, §4, §5, §6, §7

[5] = test system: Pseudomonas aeruginosa Hamburgensis; experiment: Serial dilution test in the microtiter system, MIC against Pseudomonas aeruginosa Hamburgensis; type: cell-based; conditions: minimum inhibitory concentration, 37° C., 18 to 20 hours, read-out: MIC, Pseud. aerug. Hbg.
Protocol: as §1, §2, §3, §4, §5, §6, §7

[6] = test system: Staphylococcus aureus SG 511; experiment: Serial dilution test in the microtiter system, MIC against S. aureus SG 511; type: cell-based; conditions: SG511, minimum inhibitory concentration, 37° C., 18 to 20 hours
Protocol: as §1, §2, §3, §4, §5, §6, §7

E. coli R+TEM = experiment: Serial dilution test in the microtiter system, MIC against E. coli R+TEM (β-lactamase carrier); type: cell-based; conditions: Escherichia coli, read-out: MIC, E. coli R + TEM
Protocol: as §1, §2, §3, §4, §5, §6, §7

[7] = test system: Klebsiella pneumoniae ATCC 10 031; experiment: Serial dilution test in the microtiter system, MIC against Klebsiella pneumoniae ATCC 10031; type: cell-based; conditions: minimum inhibitory concentration, 37° C., 18 to 20 hours, read-out: MIC, Klebs. pneum. ATCC 10031
Protocol: as §1, §2, §3, §4, §5, §6, §7

[8] = test system: Pseudomonas aeruginosa Walter; experiment: In vivo test in mice against experimental Pseudomonas infection; design: species or system Female NMRI mice; conditions: subcutaneous, observation 7 days; for ED50: Pseudomonas aeruginosa, sc, 168 h, per dose, dose at which 50% of the animals survived
Protocol: (§8) A series of the compounds according to the invention was tested in vivo in mice against experimental infections. As pathogenic bacteria were used E. coli ATCC 11775 and Pseudomonas aeruginosa Walter. An intraperitoneal infection was induced in each mouse with 0.2 ml of a 5% mucin suspension of the bacteria corresponding of approximately 1.4×10^6 E. coli cells and 1.3×10^6 Pseudomonas cells per mouse. Female NMRI mice were used, divided into groups of 10 animals. Two groups were untreated and the remaining groups were treated with different doses of the cephalosporins to be tested to determine the ED50 (dose at which 50% of the animals survived). The groups infected with E. coli were on the first day treated with the test compound three times ([…] post infectionem) and on the second day twice. The groups with the Pseudomonas infection were on the first day treated with the test compound six times (1, 3, 5, 7, 9 and 11 hours post infectionem), and on the following two days twice.
(§9) The observation time was in both cases 7 days.

[9] = test system: Proteus mirabilis Hamburgensis; experiment: Serial dilution test in the microtiter system, MIC against Proteus mirabilis Hamburgensis; type: cell-based; conditions: minimum inhibitory concentration, 37° C., 18 to 20 hours, read-out: MIC, Prot. Mir. Hbg.
Protocol: as §1, §2, §3, §4, §5, §6, §7

E. coli ATCC 11775 = experiment: In vivo test in mice against experimental E. coli infection; design: species or system Female NMRI mice; conditions: Escherichia coli, ATCC11775, sc, 168 h; subcutaneous; per dose; dose at which 50% of the animals survived; observation 7 days
Protocol: as §8, §9

St. aureus E 88 = experiment: Serial dilution test in the microtiter system, MIC against S. aureus E 88 (β-lactamase carrier); type: cell-based; conditions: Staphylococcus aureus, E88, minimum inhibitory concentration, 37° C., 18 to 20 hours
Protocol: as §1, §2, §3, §4, §5, §6, §7

Eb. cloaceae ATCC 13047 = experiment: Serial dilution test in the microtiter system, MIC against Eb. cloaceae ATCC 13047; type: cell-based; conditions: minimum inhibitory concentration; 37° C., 18 to 20 hours
Protocol: as §1, §2, §3, §4, §5, §6, §7

SMILES: Cn1nnnc1SCC1=C(C(=O)O)N2C(=O)[C@@H](NC(=O)[C@H](NC(=O)Nc3cnc(C4CC4)nc3O)c3ccc(O)cc3)[C@H]2SC1 [A]
- MIC [1]: 8 µg/mL (≈ 12.2 µM)
- MIC (Proteus rettgeri): 2 µg/mL (≈ 3.05 µM)
- MIC [2]: 2 µg/mL (≈ 3.05 µM)
- MIC [3]: 0.5 µg/mL (≈ 0.764 µM)
- MIC [4]: 1 µg/mL (≈ 1.53 µM)
- MIC [5]: 8 µg/mL (≈ 12.2 µM)
- MIC [6]: 0.5 µg/mL (≈ 0.764 µM)
- MIC (E. coli R+TEM): 8 µg/mL
- MIC [7]: 1 µg/mL (≈ 1.53 µM)
- ED50 [8]: 15.2 mg/kg
- MIC [9]: 0.5 µg/mL (≈ 0.764 µM)
- ED50 (E. coli ATCC 11775): 1.6 mg/kg
- MIC (St. aureus E 88): 8 µg/mL (≈ 12.2 µM)
- MIC (Eb. cloaceae ATCC 13047): 2 µg/mL (≈ 3.05 µM)

SMILES: CCCNc1ncc(NC(=O)N[C@@H](C(=O)N[C@@H]2C(=O)N3C(C(=O)O)=C(CSc4nnnn4C)CS[C@H]23)c2ccc(O)cc2)c(O)n1 [B]
- MIC [1]: 8 µg/mL (≈ 11.9 µM)
- MIC (Proteus rettgeri): 1 µg/mL (≈ 1.49 µM)
- MIC [2]: 1 µg/mL (≈ 1.49 µM)
- MIC [3]: 0.5 µg/mL (≈ 0.744 µM)
- MIC [4]: 0.5 µg/mL (≈ 0.744 µM)
- MIC [5]: 4 µg/mL (≈ 5.95 µM)
- MIC [6]: 1 µg/mL (≈ 1.49 µM)
- MIC (E. coli R+TEM): 8 µg/mL
- MIC [7]: 0.5 µg/mL (≈ 0.744 µM)
- ED50 [8]: 12.4 mg/kg
- MIC [9]: 0.25 µg/mL (≈ 0.372 µM)
- ED50 (E. coli ATCC 11775): 1.1 mg/kg
- MIC (St. aureus E 88): 8 µg/mL (≈ 11.9 µM)
- MIC (Eb. cloaceae ATCC 13047): 1 µg/mL (≈ 1.49 µM)

SMILES: Cn1nnnc1SCC1=C(C(=O)O)N2C(=O)[C@@H](NC(=O)[C@H](NC(=O)Nc3cnc(NC4CCC(O)CC4)nc3O)c3ccc(O)cc3)[C@H]2SC1 (some centres unmarked) [C]
- MIC [1]: 4 µg/mL (≈ 5.5 µM)
- MIC (Proteus rettgeri): 1 µg/mL (≈ 1.37 µM)
- MIC [2]: 0.5 µg/mL (≈ 0.687 µM)
- MIC [3]: 0.13 µg/mL (≈ 0.179 µM)
- MIC [4]: 0.5 µg/mL (≈ 0.687 µM)
- MIC [5]: 4 µg/mL (≈ 5.5 µM)
- MIC [6]: 1 µg/mL (≈ 1.37 µM)
- MIC (E. coli R+TEM): 8 µg/mL
- MIC [7]: 0.5 µg/mL (≈ 0.687 µM)
- ED50 [8]: 4.2 mg/kg
- MIC [9]: 0.13 µg/mL (≈ 0.179 µM)
- ED50 (E. coli ATCC 11775): 0.4 mg/kg
- MIC (St. aureus E 88): 8 µg/mL (≈ 11 µM)
- MIC (Eb. cloaceae ATCC 13047): 0.5 µg/mL (≈ 0.687 µM)

SMILES: CO/N=C(\C(=O)N[C@@H]1C(=O)N2C(C(=O)O)=C(COC(N)=O)CS[C@H]12)c1ccco1 [Cefuroxim, reference compound]
- MIC [1]: > 100 µg/mL
- MIC (Proteus rettgeri): 2 µg/mL (≈ 4.71 µM)
- MIC [2]: 8 µg/mL (≈ 18.9 µM)
- MIC [3]: 8 µg/mL (≈ 18.9 µM)
- MIC [4]: 4 µg/mL (≈ 9.43 µM)
- MIC [5]: > 100 µg/mL
- MIC [6]: 1 µg/mL (≈ 2.36 µM)
- MIC (E. coli R+TEM): 4 µg/mL
- MIC [7]: 2 µg/mL (≈ 4.71 µM)
- Mortality, Pseudomonas infection ([8]; at 200 mg/kg per dose): all animals died
- MIC [9]: 0.5 µg/mL (≈ 1.18 µM)
- ED50 (E. coli ATCC 11775): 37 mg/kg
- MIC (St. aureus E 88): 16 µg/mL (≈ 37.7 µM)
- MIC (Eb. cloaceae ATCC 13047): 32 µg/mL (≈ 75.4 µM)

SMILES: Cc1nnc(SCC2=C(C(=O)O)N3C(=O)[C@@H](NC(=O)Cn4cnnn4)[C@H]3SC2)s1 [Cephazolin, reference compound]
- MIC [1]: > 100 µg/mL
- MIC (Proteus rettgeri): > 100 µg/mL
- MIC [2]: > 100 µg/mL
- MIC [3]: 4 µg/mL (≈ 8.8 µM)
- MIC [4]: 2 µg/mL (≈ 4.4 µM)
- MIC [5]: > 100 µg/mL
- MIC [6]: 0.06 µg/mL (≈ 0.132 µM)
- MIC (E. coli R+TEM): 4 µg/mL
- MIC [7]: 1 µg/mL (≈ 2.2 µM)
- MIC [9]: 4 µg/mL (≈ 8.8 µM)
- MIC (St. aureus E 88): 8 µg/mL (≈ 17.6 µM)
- MIC (Eb. cloaceae ATCC 13047): > 100 µg/mL

SMILES: CC(=O)Nc1nnc(SCC2=C(C(=O)O)N3C(=O)[C@@H](NC(=O)[C@H](NC(=O)Nc4cnc(NC5CCC(O)CC5)nc4O)c4ccc(O)cc4)[C@H]3SC2)s1 (some centres unmarked) [D]
- MIC [1]: 8 µg/mL (≈ 10.2 µM)
- MIC (Proteus rettgeri): 8 µg/mL (≈ 10.2 µM)
- MIC [2]: 4 µg/mL (≈ 5.08 µM)
- MIC [3]: 1 µg/mL (≈ 1.27 µM)
- MIC [4]: 2 µg/mL (≈ 2.54 µM)
- MIC [5]: 8 µg/mL (≈ 10.2 µM)
- MIC [6]: 1 µg/mL (≈ 1.27 µM)
- MIC (E. coli R+TEM): 16 µg/mL
- MIC [7]: 2 µg/mL (≈ 2.54 µM)
- MIC [9]: 1 µg/mL (≈ 1.27 µM)
- MIC (St. aureus E 88): 8 µg/mL (≈ 10.2 µM)
- MIC (Eb. cloaceae ATCC 13047): 8 µg/mL (≈ 10.2 µM)
